Experimental data as given in PubChem BioAssay (NCI).
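Cells were grown in 96-well plates and exposed to each compound for 48 hours at five concentrations; endpoints were interpolated linearly between bracketing concentrations, or set to the highest concentration if not reached. The concentration for 50% growth inhibition is given as GI50. Definition used: TGI = concentration required for complete inhibition of growth.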

How the values were obtained:
Assay in all cases: DTP human tumour cell line panel, 48 h
[1] = system: HCT-15 colon
[2] = system: TK-10 renal
[3] = system: UO-31 renal
[4] = system: HCT-116 colon
[5] = system: SN12C renal
[6] = system: SW-620 colon
[7] = system: IGROV1 ovarian
[8] = system: UACC-62 melanoma
[9] = system: SNB-19 CNS
[10] = system: SK-OV-3 ovarian

SMILES | GI50 [1] [µM] | TGI [1] [µM] | GI50 [2] [µM] | TGI [2] [µM] | GI50 [3] [µM] | TGI [3] [µM] | GI50 [4] [µM] | TGI [4] [µM] | GI50 [5] [µM] | TGI [5] [µM] | GI50 [6] [µM] | TGI [6] [µM] | GI50 [7] [µM] | TGI [7] [µM] | GI50 [8] [µM] | TGI [8] [µM] | GI50 [9] [µM] | TGI [9] [µM] | GI50 [10] [µM] | TGI [10] [µM]
O=C(O)c1c(=O)cccc2ssc12 | 1.73 | 3.52 | 1.75 | 3.23 | 1.66 | 3.44 | 1.62 | 3.32 | 2.49 | 6.32 | 2.22 | 5.59 | 2.39 | 5.91 | 2.09 | 4.59 | 1.92 | 3.79 | 1.74 | 3.26
COC(=O)c1cc2c3ccccc3[nH]c2c2sccc12 | 8.9 | 94.4 | 13.8 | 52.6 | 7.59 | > 100 | 34.1 | > 100 | 21.8 | 61.8 | 35.1 | > 100 | 4.31 | > 100 | 22.3 | > 100 | 23.6 | 79.7 | 34.1 | > 100
Cc1ccc(NC(=O)CSc2nnc3n(Cc4ccccc4)c(=O)c4c(C)c(C(N)=O)sc4n23)cc1 | > 100 | > 100 | 13.7 | 34 | > 100 | > 100 | 3.5 | > 100 | > 100 | > 100 | > 100 | > 100 | 37 | > 100 | > 100 | > 100 | 14.6 | > 100 | 4.28 | 65.4
CN(Cc1cc(Br)cc(Br)c1O)Cc1c(O)ccc2ccccc12 |  | > 100 |  | 36.4 |  | 30.9 |  | 40.6 |  | 32 |  | > 100 |  | 44.6 |  | 41.3 |  | 38.9 |  | 52
O=C1C2CCN(CC2)C1(CO)CO |  | 34.6 |  | 32.2 |  | 34.1 |  | 30.9 |  | 33 |  | 36.3 |  | > 100 |  | 42.1 |  | > 100 |  | > 100
O=C1OC(=O)C2CCCC3CCCC1C32 (centres undefined) |  | > 100 |  | > 100 |  | > 100 |  | > 100 |  | > 100 |  | > 100 |  | > 100 |  | > 100 |  | > 100 |  | > 100
C/C=C(\CCOS(=O)(=O)c1ccc(C)cc1)[Si](C)(C)C |  | > 100 |  | > 100 |  | > 100 |  | > 100 |  | > 100 |  | > 100 |  | > 100 |  | > 100 |  | > 100 |  | > 100
CC1(N)CCN(c2cnc(-c3cccc(Cl)c3Cl)c(N)n2)CC1 | 28.3 | > 100 | 2.8 | 53.2 | 3.3 | 17.9 | 14.5 | 29 | 15.6 | > 100 | 19.3 | > 100 | 6.48 | > 100 | 19.1 | 39.9 | 7.63 | > 100 | 3.02 | 60.5
CC(=[N-])N1CCC[C@@H](Nc2c3ccccc3nc3ccccc23)C1.[Cl][Pt].[NH-]CCC[NH-] | 2.37 | > 100 | 2.76 | > 46.1 | 1.78 | 9.21 | 1.28 | > 100 | 0.0214 |  | 0.268 | > 100 | 0.577 | > 100 | 0.0295 | 0.114 | 1.49 | > 100 | 2.43 | > 100
